Data from patent US8389573B2, “Glycyrrhetinic acid derivatives” (Wellington Laboratories Inc., priority 2006, dated 2013).
Entries after “also recorded” stand apart in the source; their conditions may differ.

Columns and labels:
[1] = test system: HT-29 colon cancer cells; assay: Cell proliferation assay in HT-29 cells; format: cell-based; details: Homo sapiens, read-out: IC50, growth inhibition / cell proliferation
Experimental: Human colon carcinoma cell lines SW480 and HT29 were provided by Dr. Stan Hamilton, M.D. Anderson Cancer Center (Houston, Tex.); SW-480 and HT-29 cells were maintained in Dulbecco's modified Eagle's medium nutrient mixture with Ham's F-12 (DMEM/Ham's F-12; Sigma-Aldrich, St. Louis, Mo.) with phenol red supplemented with 0.22% sodium bicarbonate, 0.011% sodium pyruvate, and 5% fetal bovine serum and 10 ml/l 100× antibiotic antimycotic solution (Sigma-Aldrich). Cells were maintained at 37° C. in the presence of 5% CO2.
SW480 and HT 29 Cells (2×10^4) were plated in 12-well plates, and media were replaced the next day with DMEM/Ham's F-12 media containing 2.5% charcoal-stripped FBS and either vehicle (DMSO) or the indicated ligand and dissolved in DMSO. Fresh media and compounds were added every 48 h. Cells were counted at the indicated times using a Coulter Z1 cell counter. Each experiment was done in triplicate, and results are expressed as means±S.E. for each determination

[2] = test system: Sp1, Sp3 and Sp4 protein expression in Panc28 cells; assay: Sp protein expression (gels) in Panc28 cells; format: cell-based
[3] = test system: Panc28 pancreatic cancer cells; assay: Growth inhibition in Panc28 pancreatic cancer cells; format: cell-based; details: Pancreatic cancer cell
[4] = test system: Sp1, Sp3 and Sp4 in liver; assay: Sp protein expression in non-target tissue (liver) of treated mice; format: in vivo; details: preliminary results
Description: (i) Animal treatment: Male athymic nude mice are obtained from commercial sources and their use approved by the Institutional Animal Care and Use Committee. Ten animals are used for each treatment group and based on consultation with biostatisticians, this number is sufficient for determining statistical significance between treatment groups (41, 42). At least one AR-positive (LNCaP/22Rv1) and AR-negative (PC3/DU145) prostate cancer cell line is used in the xenograft study. Cells are harvested by exposure to trypsin and resuspended in serum-free Hanks' balanced salt solution (HBSS). […] In addition, Western blot analysis of Sp proteins, proapoptotic and antiangiogenic responses is determined on whole cell lysates from compound- and corn oil (vehicle)-treated tumors. Where possible (depending on the amount of protein extracted), the effects of the compound versus corn oil on expression of these proteins is quantitated and statistically analyzed. In addition, the effects of the compound on Sp protein expression in non-target tissue (e.g. liver and kidney) is determined. […] Immunostaining for Sp1, Sp3 and Sp4 and for angiogenic (VEGF, VEGFR1 and VEGFR2) and apoptotic (cleaved PARP, activated caspase 3, survivin and TUNEL) proteins/responses are determined as described above.

[5] = test system: AR mRNA; assay: Real-time PCR of AR mRNA in LNCaP cells; format: cell-based, human
Experimental: Real-Time PCR: Total RNA was isolated using the RNeasy Protect Mini kit (QIAGEN, Valencia, Calif.) according to the manufacturer's protocol. RNA was eluted with 30 μl of RNasefree water and stored at −80° C. RNA was reverse transcribed using Superscript II reverse transcriptase (Invitrogen) according to the manufacturer's protocol. cDNA was prepared from the LNCaP cell line using a combination of oligodeoxythymidylic acid and dNTP mix (Applied Biosystems, Foster City, Calif.) and Superscript II (Invitrogen). Each PCR was carried out in triplicate in a 25-μl volume using SYBR Green Master mix (Applied Biosystems) for 15 min at 95° C. for initial denaturing, followed by 40 cycles of 95° C. for 30 s and 60° C. for 1 min in the ABI Prism 7700 sequence detection system (Applied Biosystems). The ABI Dissociation Curves software was used after a brief thermal protocol (95° C. 15 s and 60° C. 20 s, followed by a slow ramp to 95° C.) to control for multiple species in each PCR amplification. The comparative CT method was used for relative quantitation of samples. Values for each gene were normalized to expression levels of TATA-binding protein. Primers were purchased from Integrated DNA Technologies (Coralville, Iowa). The sequences of the primers used for reverse transcription-PCR were as follows: AR forward, 5′-GTA CCC TGG CGG CAT GGT-3′ [SEQ ID NO: 1] and AR reverse, 5′-CCCATTTCGCTTTTGACACA-3′ [SEQ ID NO: 2]; PSA forward, 5′-GCATTGAACCAGAGGAGTTCTTG-3′ [SEQ ID NO: 3] and PSA reverse, 5′-TTG CGC ACA CAC GTC ATT G-3′ [SEQ ID NO: 4]; and TATA-binding protein forward, 5′-TGCACAGGAGCCAAGAGTGAA-3′ [SEQ ID NO: 5] and reverse, 5′-CACATCACAGCTCCCCACCA-3′ [SEQ ID NO: 6].

COC(=O)[C@@]1(C)CC[C@]2(C)CC[C@]3(C)C(=CC(=O)[C@@H]4[C@@]5(C)C=C(C#N)C(=O)C(C)(C)[C@@H]5CC[C@]43C)[C@@H]2C1 [β-CDODA-Me, Methyl 2-cyano-3,11-dioxo-18β-oleana-1,12-dien-30-oate]
IC50 [1]: 0.2 to 0.5 µM
Sp1, Sp3 and Sp4 protein expression [2]: concentration-dependent decrease; also recorded: induces Sp protein degradation
VEGF expression [2]: parallel decrease
caspase-dependent apoptosis (PARP cleavage) [2]: induction of caspase-dependent apoptosis
effects on Sp protein expression with PPARγ antagonist (T007) [2]: not blocked; also recorded: not reversed
effects on Sp protein expression with proteasome inhibitor lactacystin [2]: not blocked; also recorded: only a minimal amount of reversal
IC50 [3]: 1 to 2.5 µM
Sp1, Sp3 and Sp4 expression in liver [4]: unaffected
AR mRNA effects in the presence of cycloheximide (10 μg/ml) [5]: did not modulate
AR mRNA levels after cotreatment with T007 [5]: did not affect mRNA levels
AR mRNA levels ([5]; 12 and 18 hr): decreases AR mRNA levels
